pIC50: −log10 of the molar value.
Assays:
Format in all cases: cell-based
[1] = system: NCI-H526 cell line; assay: Cell viability assay for NCI-H526 cell line (EZ-Cytox); conditions: Homo sapiens, NCI-H526, 120 h; H526 cells, 5 days, 3000 nM to 0.46 nM
Summary of the method: (§1)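 IC50 values are binned (A: <30 nM, B: <50 nM, C: <100 nM, D: <200 nM, E: <400 nM) from EZ-Cytox read-outs. Cells were exposed to compound for 5 days, then shaken 3 min and absorbance taken at […].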

[2] = molecular target: T1, PLK1 (Homo sapiens, UniProt P53350); assay: Luciferase assay for PLK1 in HeLa LgBit (Plk1-HiBit KI) cell line; conditions: 300 nM compound, luminescence after 9 hours
T1 construct: endogenous in cells; host or cells: HeLa LgBit (Plk1-HiBit KI): HeLa stably expressing LgBit, with a CRISPR/Cas9 knock-in of HiBit at the endogenous PLK1 locus
Summary of the method: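 Compounds (300 nM) were added with Endurazine to thymidine-synchronised cells (2 mM, 24 h block, then release and 18 h culture), and luminescence at 470-480 nm was followed live. Cells: HeLa stably expressing LgBit, HiBit knocked into native PLK1 C-terminus. Value: luminescence ratio versus DMSO control.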

[3] = system: MRC-5 cell line; assay: Cell viability assay for MRC-5 cell line (EZ-Cytox); conditions: Homo sapiens, MRC5, 120 h; MRC-5 normal cell line, 5 days, 10000 nM to 1.52 nM; read-out: Activity: IC50 value, cell viability, MRC-5 cell line (Exemplary Compounds)
Experimental: 4. Cell Viability Assay for MRC-5 Cell Line
(1) Culture of MRC-5 Cell Line
The MRC-5 cell line was purchased from KCLB. Passage of cultured cells was maintained within P15.
(2) Treatment of Compounds of the Present Invention
Then, it was cultured in 37° C. CO2 incubator (Thermo Fisher Scientific) for 5 days.
(3) Cytotoxicity Experiment
CO2 incubator for 4 hours.

[4] = system: NCI-H69 cell line; assay: Cell viability assay for NCI-H69 cell line (EZ-Cytox); conditions: Homo sapiens, NCI-H69, 120 h; H69 cells, 5 days, 3000 nM to 0.46 nM
Summary of the method: as §1

T1 sequence (P53350 whole entry): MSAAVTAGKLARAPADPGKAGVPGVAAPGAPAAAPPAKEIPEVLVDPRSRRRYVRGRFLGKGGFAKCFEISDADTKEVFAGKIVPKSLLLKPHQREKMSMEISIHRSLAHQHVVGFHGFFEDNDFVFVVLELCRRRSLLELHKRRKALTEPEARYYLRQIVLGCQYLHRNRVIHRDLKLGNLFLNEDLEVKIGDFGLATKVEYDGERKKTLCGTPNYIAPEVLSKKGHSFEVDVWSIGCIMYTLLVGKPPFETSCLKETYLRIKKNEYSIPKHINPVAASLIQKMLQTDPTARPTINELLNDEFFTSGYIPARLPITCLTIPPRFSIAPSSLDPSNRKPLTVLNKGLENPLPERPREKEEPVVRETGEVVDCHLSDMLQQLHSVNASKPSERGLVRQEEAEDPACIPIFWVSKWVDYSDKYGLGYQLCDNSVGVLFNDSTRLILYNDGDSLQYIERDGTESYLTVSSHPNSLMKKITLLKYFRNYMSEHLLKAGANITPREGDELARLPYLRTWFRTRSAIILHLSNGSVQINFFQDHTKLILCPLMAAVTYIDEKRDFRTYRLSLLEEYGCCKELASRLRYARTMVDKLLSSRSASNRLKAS

| Activity: ratio of the luminescence value of compound treatment group to DMSO treatment group [2] | SMILES | pIC50 [1] | pIC50 [3] | pIC50 [4] |
| --- | --- | --- | --- | --- |
| +++ (+++: <0.3) | COc1cc(C(=O)NN2CCC(CCN3CCN(c4ccc(NC5CCC(=O)NC5=O)c(OC)c4F)CC3)CC2)ccc1Nc1ncc2c(n1)N(C1CCCC1)CC(F)(F)C(=O)N2C (stereo not drawn) [Compound 54, 4-((9-cyclopentyl-7,7-difluoro-5-methyl-6-oxo-6,7,8,9-tetrahydro-5H-pyrimido[4,5-b][1,4]diazepin-2-yl)amino)-N-(4-(2-(4-(4-((2,6-dioxopiperidin-3-yl)amino)-2-fluoro-3-methoxyphenyl)piperazin-1-yl)ethyl)piperidin-1-yl)-3-methoxybenzamide] | > 7.52 | < 5.00 | > 7.52 |
| +++ (+++: <0.3) | COc1cc(C(=O)NN2CCC(CCN3CCN(c4ccc(NC5CCC(=O)NC5=O)c(F)c4OC)CC3)CC2)ccc1Nc1ncc2c(n1)N(C1CCCC1)CC(F)(F)C(=O)N2C (stereo not drawn) [Compound 55, 4-((9-cyclopentyl-7,7-difluoro-5-methyl-6-oxo-6,7,8,9-tetrahydro-5H-pyrimido[4,5-b][1,4]diazepin-2-yl)amino)-N-(4-(2-(4-(4-((2,6-dioxopiperidin-3-yl)amino)-3-fluoro-2-methoxyphenyl)piperazin-1-yl)ethyl)piperidin-1-yl)-3-methoxybenzamide] | > 7.52 | < 5.00 | > 7.52 |
| ++ (++: <0.5) | COc1cc(C(=O)NN2CCC(CCN3CCN(c4cc(F)c(NC5CCC(=O)NC5=O)cc4OC)CC3)CC2)ccc1Nc1ncc2c(n1)N(C1CCCC1)CC(F)(F)C(=O)N2C (stereo not drawn) [Compound 56, 4-((9-cyclopentyl-7,7-difluoro-5-methyl-6-oxo-6,7,8,9-tetrahydro-5H-pyrimido[4,5-b][1,4]diazepin-2-yl)amino)-N-(4-(2-(4-(4-((2,6-dioxopiperidin-3-yl)amino)-5-fluoro-2-methoxyphenyl)piperazin-1-yl)ethyl)piperidin-1-yl)-3-methoxybenzamide] | > 7.52 | < 5.00 | > 7.52 |
| +++ (+++: <0.3) | COc1cc(C(=O)NN2CCC(CCN3CCN(c4cc(F)c(NC5CCC(=O)NC5=O)cc4F)CC3)CC2)ccc1Nc1ncc2c(n1)N(C1CCCC1)CC(F)(F)C(=O)N2C (stereo not drawn) [Compound 57, 4-((9-cyclopentyl-7,7-difluoro-5-methyl-6-oxo-6,7,8,9-tetrahydro-5H-pyrimido[4,5-b][1,4]diazepin-2-yl)amino)-N-(4-(2-(4-(4-((2,6-dioxopiperidin-3-yl)amino)-2,5-difluorophenyl)piperazin-1-yl)ethyl)piperidin-1-yl)-3-methoxybenzamide] | > 7.52 | < 5.00 | > 7.52 |
| +++ (+++: <0.3) | COc1cc(C(=O)NN2CCC(CCN3CCN(c4cc(F)c(NC5CCC(=O)NC5=O)cc4F)CC3)CC2)ccc1Nc1ncc2c(n1)N(C(C)C)CC(F)(F)C(=O)N2C (stereo not drawn) [Compound 58, 4-((7,7-difluoro-9-isopropyl-5-methyl-6-oxo-6,7,8,9-tetrahydro-5H-pyrimido[4,5-b][1,4]diazepin-2-yl)amino)-N-(4-(2-(4-(4-((2,6-dioxopiperidin-3-yl)amino)-2,5-difluorophenyl)piperazin-1-yl)ethyl)piperidin-1-yl)-3-methoxybenzamide] | > 7.52 | < 5.00 | > 7.52 |
| ++ (++: <0.5) | COc1cc(C(=O)NN2CCC(CCN3CCN(c4cc(F)c(NC5CCC(=O)NC5=O)cc4F)CC3)CC2)c(F)cc1Nc1ncc2c(n1)N(C1CCCC1)CC(F)(F)C(=O)N2C (stereo not drawn) [Compound 59, 4-((9-cyclopentyl-7,7-difluoro-5-methyl-6-oxo-6,7,8,9-tetrahydro-5H-pyrimido[4,5-b][1,4]diazepin-2-yl)amino)-N-(4-(2-(4-(4-((2,6-dioxopiperidin-3-yl)amino)-2,5-difluorophenyl)piperazin-1-yl)ethyl)piperidin-1-yl)-2-fluoro-5-methoxybenzamide] | > 7.52 | < 5.00 | > 7.30 |

Second part, the compound before the results:

| SMILES | Activity: ratio of the luminescence value of compound treatment group to DMSO treatment group [2] | pIC50 [1] | pIC50 [3] | pIC50 [4] |
| --- | --- | --- | --- | --- |
| COc1cc(C(=O)NC2CCN(CCN3CCN(c4cc(OC)c(NC5CCC(=O)NC5=O)cc4F)CC3)CC2)ccc1Nc1ncc2c(n1)N(C1CCCC1)CC(F)(F)C(=O)N2C (stereo not drawn) [Compound 48, 4-((9-cyclopentyl-7,7-difluoro-5-methyl-6-oxo-6,7,8,9-tetrahydro-5H-pyrimido[4,5-b][1,4]diazepin-2-yl)amino)-N-(1-(2-(4-(4-((2,6-dioxopiperidin-3-yl)amino)-2-fluoro-5-methoxyphenyl)piperazin-1-yl)ethyl)piperidin-4-yl)-3-methoxybenzamide] | ++ (++: <0.5) | > 7.52 | < 5.00 | > 7.30 |
| COc1cc(C(=O)NC2CCN(CCN3CCN(c4cc(OC)c(NC5CCC(=O)NC5=O)cc4F)CC3)CC2)c(F)cc1Nc1ncc2c(n1)N(C1CCCC1)CC(F)(F)C(=O)N2C (stereo not drawn) [Compound 49, 4-((9-cyclopentyl-7,7-difluoro-5-methyl-6-oxo-6,7,8,9-tetrahydro-5H-pyrimido[4,5-b][1,4]diazepin-2-yl)amino)-N-(1-(2-(4-(4-((2,6-dioxopiperidin-3-yl)amino)-2-fluoro-5-methoxyphenyl)piperazin-1-yl)ethyl)piperidin-4-yl)-2-fluoro-5-methoxybenz amide] | ++ (++: <0.5) | > 7.52 | < 5.00 | > 7.30 |
| COc1cc(C(=O)NC2CCN(CCC3CCN(c4cc(OC)c(NC5CCC(=O)NC5=O)cc4F)CC3)CC2)c(F)cc1Nc1ncc2c(n1)N(C(C)C)CC(F)(F)C(=O)N2C (stereo not drawn) [Compound 50, 4-((7,7-difluoro-9-isopropyl-5-methyl-6-oxo-6,7,8,9-tetrahydro-5H-pyrimido[4,5-b][1,4]diazepin-2-yl)amino)-N-(1-(2-(1-(4-((2,6-dioxopiperidin-3-yl)amino)-2-fluoro-5-methoxyphenyl)piperidin-4-yl)ethyl)piperidin-4-yl)-2-fluoro-5-methoxybenzamide] | ++ (++: <0.5) | > 7.30 | < 5.00 | > 7.00 |
| COc1cc(C(=O)NC2CC3(CCN(CC4CCN(c5cc(OC)c(NC6CCC(=O)NC6=O)cc5F)CC4)CC3)C2)ccc1Nc1ncc2c(n1)N(C1CCCC1)CC(F)(F)C(=O)N2C (stereo not drawn) [Compound 51, 4-((9-cyclopentyl-7,7-difluoro-5-methyl-6-oxo-6,7,8,9-tetrahydro-5H-pyrimido[4,5-b][1,4]diazepin-2-yl)amino)-N-(7-((1-(4-((2,6-dioxopiperidin-3-yl)amino)-2-fluoro-5-methoxyphenyl)piperidin-4-yl)methyl)-7-azaspiro[3.5]nonan-2-yl)-3-methoxybenzamide] | +++ (+++: <0.3) | > 7.52 | < 5.00 | > 7.52 |
| COc1cc(C(=O)NC2CC3(CCN(CC4CCN(c5cc(OC)c(NC6CCC(=O)NC6=O)cc5F)CC4)CC3)C2)c(F)cc1Nc1ncc2c(n1)N(C(C)C)CC(F)(F)C(=O)N2C (stereo not drawn) [Compound 52, 4-((7,7-difluoro-9-isopropyl-5-methyl-6-oxo-6,7,8,9-tetrahydro-5H-pyrimido[4,5-b][1,4]diazepin-2-yl)amino)-N-(7-((1-(4-((2,6-dioxopiperidin-3-yl)amino)-2-fluoro-5-methoxyphenyl)piperidin-4-yl)methyl)-7-azaspiro[3.5]nonan-2-yl)-2-fluoro-5-methoxybenzamide] | ++ (++: <0.5) | > 7.52 | < 5.00 | > 7.52 |
| COc1cc(C(=O)NC2CC3(CCN(CC4CCN(c5cc(OC)c(NC6CCC(=O)NC6=O)cc5F)CC4)CC3)C2)ncc1Nc1ncc2c(n1)N(C(C)C)CC(F)(F)C(=O)N2C (stereo not drawn) [Compound 53, 5-((7,7-difluoro-9-isopropyl-5-methyl-6-oxo-6,7,8,9-tetrahydro-5H-pyrimido[4,5-b][1,4]diazepin-2-yl)amino)-N-(7-((1-(4-((2,6-dioxopiperidin-3-yl)amino)-2-fluoro-5-methoxyphenyl)piperidin-4-yl)methyl)-7-azaspiro[3.5]nonan-2-yl)-4-methoxypicolinamide] | ++ (++: <0.5) | > 7.52 | < 5.00 | > 7.30 |

Source: US20260273072A1, “NOVEL PLK1 DEGRADATION INDUCING COMPOUND” (UPPTHERA, INC., priority 2023, published 2026)
